Values quoted from earlier work as cited in patent publication EP0674651B1, “SUBSTITUTED 6-AZAANDROSTENONES” (priority 1992, dated 1994).

What was measured:
[1] = biological target: T1, bovine adrenal 3β-hydroxy-Δ^5-steroid dehydrogenase / 3-keto-Δ^5-steroid isomerase (3βHSD) (Bos taurus, UniProt P14893); settings: cited from earlier work
T1 construct: host or cells: bovine adrenal
T1 sequence (P14893 1-373): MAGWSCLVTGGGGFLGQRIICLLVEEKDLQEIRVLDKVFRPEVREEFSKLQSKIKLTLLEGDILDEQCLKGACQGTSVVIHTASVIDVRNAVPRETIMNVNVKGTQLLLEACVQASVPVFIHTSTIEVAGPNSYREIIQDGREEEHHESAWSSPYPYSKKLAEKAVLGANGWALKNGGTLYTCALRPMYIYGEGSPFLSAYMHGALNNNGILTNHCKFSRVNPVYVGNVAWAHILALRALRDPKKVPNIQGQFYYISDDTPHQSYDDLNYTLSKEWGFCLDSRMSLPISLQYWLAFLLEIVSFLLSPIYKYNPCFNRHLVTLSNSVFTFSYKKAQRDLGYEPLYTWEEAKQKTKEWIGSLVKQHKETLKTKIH

[2] = biological target: T2, porcine granulosa cell 3β-hydroxy-Δ^5-steroid dehydrogenase / 3-keto-Δ^5-steroid isomerase (3βHSD) (Sus scrofa, UniProt Q9N119); settings: cited from earlier work
T2 construct: host or cells: porcine granulosa cells
T2 sequence (Q9N119 1-373): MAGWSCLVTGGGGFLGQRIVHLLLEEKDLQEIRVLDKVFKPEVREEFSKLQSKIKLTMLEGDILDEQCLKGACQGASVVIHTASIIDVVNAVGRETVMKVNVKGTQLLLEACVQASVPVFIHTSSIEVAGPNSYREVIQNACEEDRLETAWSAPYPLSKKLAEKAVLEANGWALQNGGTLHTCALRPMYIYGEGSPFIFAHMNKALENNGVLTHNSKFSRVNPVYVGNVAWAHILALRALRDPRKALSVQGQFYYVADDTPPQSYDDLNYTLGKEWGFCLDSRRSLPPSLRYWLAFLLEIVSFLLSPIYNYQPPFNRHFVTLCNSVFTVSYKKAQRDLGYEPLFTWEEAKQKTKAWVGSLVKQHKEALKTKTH

[3] = literature reports; cited from earlier work

CCN(CC)C(=O)[C@H]1CC[C@H]2[C@@H]3CC[C@H]4N(C)C(=O)CC[C@]4(C)[C@H]3CC[C@]12C [Compound 4-MA]
inhibition of 3βHSD [1]: potent inhibition | inhibition of 3βHSD [2]: potent inhibition | hepatotoxicity [3]: hepatotoxicity
